How the values were obtained:
[1] = tested on: severe alcoholic hepatitis; settings: non-patent references 1 and 2; cited from earlier work
[2] = tested on: concanavalin A-induced hepatitis; assay: Action on concanavalin A-induced hepatitis (plasma ALT 8 hr after Con A); format: in vivo, female BALB/c mouse; settings: therapeutic administration 3 hr after Con A injection (20 mg/kg i.v.), mouse
Experimental: 20 mg/kg of concanavalin A (Con A, type V, manufactured by Sigma) was intravenously administered to female BALB/c mouse (purchased from Charles River Laboratories JAPA, INC.). […] The administration time in the prophylactic administration test of pentoxifylline (manufactured by Sigma) or anti-mouse TNF-α antibody (manufactured by Genzyme-Techne) was set according to the method of Shirin et al. [Journal of Hepatology, 29, 60-67 (1998)] or Gantner et al. [Hepatology, 21, 190-198 (1995)]. The administration time in the therapeutic administration test was always set to 3 hr after Con A injection. To be specific, pentoxifylline (100 mg/kg) was intraperitoneally administered 2 hr before or 3 hr after Con A injection, anti-mouse TNF-α antibody (250 μg, was intravenously administrated 15 minutes before or 3 hr after Con A injection, and plasma SALT was similarly measured 8 hr later.
In addition, the test compound (10 mg/kg) was intravenously administrated 15 minutes before or 3 hr after Con A injection, and plasma ALT concentration was similarly measured.
The results are shown in mean±standard error.

[3] = tested on: concanavalin A-induced hepatitis; settings: prophylactic administration before injection of concanavalin A; mouse; non-patent references 3 and 4; cited from earlier work

Compound | effectiveness for severe alcoholic hepatitis [1] | therapeutic effect in the hepatitis model (progress of concanavalin A-induced hepatitis, plasma ALT) [2] | inhibition of the progress of concanavalin A-induced hepatitis [3]
CC(=O)CCCCn1c(=O)c2c(ncn2C)n(C)c1=O [pentoxifylline] | effective | do not inhibit progress | inhibit the progress
CC(=O)NC1(c2ccc(CN3CCN(c4ncccn4)CC3)cc2)CC1.Cl [test compound, N-(1-(4-((4-(pyrimidin-2-yl)piperazin-1-yl)methyl)phenyl)cyclopropyl)acetamide hydrochloride] | – | shows a therapeutic effect | –
